# Measured values taken from patent publication EP0047496A1, “Sulfonyl ureas, processes for their production, pharmaceutical compositions based on these compounds and their use” (HOECHST AKTIENGESELLSCHAFT, priority 1980, dated 1982).
# Test system: Kaninchen
# Experiment: Blood sugar lowering after oral administration to rabbits (autoanalyzer)
# Format: in vivo
# Settings: 0,4 mg/kg oral, nach 6 Stunden
# Experimental: Die blutzuckersenkende Wirkung der erfindungsgemäßen Benzolsulfonylharnstoffe kann dadurch festgestellt werden, daß man sie als freie Verbindungen oder in Form der Natriumsalze an normal ernährte Kaninchen verfüttert und den Blutzuckerwert nach der bekannten Methode von Hagedorn-Jensen oder mit einem Autoanalyzer über eine längere Zeitdauer ermittelt.
# Die routinemäßige Bestimmung der blutzuckersenkenden Wirkung kann mit Dosierungen von z.B. 10,2 oder 0,4 mg oder mit noch geringeren Mengen Wirksubstanz pro kg Versuchstier nach bekannten Methoden erfolgen.
# Die folgenden Verbindungen I bis V wurden in Dosierungen von 2 mg/kg Kaninchen oral verabreicht und die Blutzuckerwerte wurden mit einem Autoanalyzer über eine Zeitdauer von 24 Stunden ermittelt. Die hierbei gemessene Blutzuckersenkung ist in der nachfolgenden Tabelle in % nach ... Stunden angegeben. • I N-(4-<2-(N'-<5-Chlor-2-methoxy-benzoyl>-ureido)-äthyl>- benzolsulfonyl)-N'-cyclohexyl-harnstoff • II N-(4-<2-(N'-<5-Chlor-2-methoxy-benzoyl>-ureido)-äthyl>- benzolsulfonyl)-N'-butyl-harnsotff • III N-(4-<2-(N'-<5-Chlor-2-methoxy-benzoyl>-ureido)-äthyl>- benzolsulfonyl)-N'-cyclopentyl-harnstoff • IV N-(4-<2-(N'-<2-Methoxy-5-methyl-benzoyl)-ureido)-äthyl>- benzolsulfonyl)-N'-cyclohexyl-harnstoff • V N-(4-<2-(N'-<2-Methoxy-5-methyl-benzoyl>-ureido)-äthyl>- benzolsulfonyl)-N'-(4-methyl-cyclohexyl)-harnstoff [formula]
# Die Verbindungen I, IV und V wurden in Dosierungen von 0,4 mg/kg oral an Kaninchen verabreicht und die Blutzuckersenkung gemessen. Sie betrug nach 6 Stunden 40 % (Verbindung I), 41 % (Verbindung IV) und 33 % (Verbindung V).
row,Structure (SMILES),Blutzuckersenkung
1,"COc1ccc(C)cc1C(=O)NC(=O)NCCc1ccc(S(=O)(=O)NC(=O)NC2CCC(C)CC2)cc1 (stereo not drawn) [Verbindung V, N-(4-<2-(N'-<2-Methoxy-5-methyl-benzoyl>-ureido)-äthyl>- benzolsulfonyl)-N'-(4-methyl-cyclohexyl)-harnstoff]",33%
2,COc1ccc(C)cc1C(=O)NC(=O)NCCc1ccc(S(=O)(=O)NC(=O)NC2CCCCC2)cc1 [Verbindung IV],41%
3,"COc1ccc(Cl)cc1C(=O)NC(=O)NCCc1ccc(S(=O)(=O)NC(=O)NC2CCCCC2)cc1 [Verbindung I, N-(4-<2-(N'-<5-Chlor-2-methoxy-benzoyl>-ureido)-äthyl>- benzolsulfonyl)-N'-cyclohexyl-harnstoff]",40%
